Reference: patent publication US20240366639A1, “HETEROCYCLIC GLP-1 AGONISTS” (GASHERBRUM BIO, INC., priority 2021, published 2024)
Counter-ions that a name gives are not always drawn. Like-named read-outs stand apart in the source and are kept apart here.

Target: T1, GLP-1 Receptor (GLP1R) (Homo sapiens, UniProt P43220)
T1 construct: host or cells: HEK293/GLP1R/CRE-LUC
Assay: GLP-1R agonist cAMP stimulation assay (Method 3)
Type: cell-based
Conditions: HEK293/GLP1R/CRE-LUC cells (HDB), Method 3, 30 min incubation
Description: Method 3: Activation of GLP-1 receptor is known to stimulate cyclic AMP (cAMP) production in cells which indicates primary coupling to the Gαs subunit of the G protein heterotrimeric complex.
To optimize functional activity directed toward Gαs coupling, a HEK293/CRE-Luc cell line developed by HDB stably expressing the GLP-1 Receptor was used, 200× concentration of compound working solutions were prepared (Agilent Technologies Bravo) with 1/2 log serial dilution in 384-well Echo LDV plate (Labcyte, Cat #LP-0200). 50 nL/well 200× concentration of compound working solutions were moved to 384-well white low volume plate (Greiner, Cat #784075) using Labcyte ECHO550. 1×10^5 cells/mL HEK293/GLP1R/CRE-LUC(HD Biosciences) cell suspensions prepared with assay buffer [DPBS containing 0.5 mM IBMX (Sigma, Cat #15879) and 0.1% BSA (GENVIEW, Cat #FA016-100 g)], 10 μL cell suspensions were added to each well of previous generated assay plate which already contains 50 nL compound at 200× concentration using ThermoFisher Multidrop Combi (1000 cells/well). Seal the plate and incubate at 37° C. with 5% CO2 for 30 min.
After incubation the cAMP assay signal was generated using cAMP dynamic 2 Kit (Cisbio). 5 μL cAMP-d2 working solution was added to each well, followed with 5 μL Anti-cAMP antibody-cryptate working solution added to each well using ThermoFisher Multidrop Combi. Incubate at room temperature for 1 hour protected from light. Read the fluorescence at 665 nm and 615 nm with Reader PerkinElmer EnVision.

[1] = read-out: GLP1R cAMP Stimulation DR: EC50 (nM) [Species: Human, Assay Cell Line: HDB]
[2] = read-out: GLP1R cAMP Stimulation DR: pEC50 (M) [Species: Human, Assay Cell Line: HDB] (converted)

T1 sequence (P43220 24-463): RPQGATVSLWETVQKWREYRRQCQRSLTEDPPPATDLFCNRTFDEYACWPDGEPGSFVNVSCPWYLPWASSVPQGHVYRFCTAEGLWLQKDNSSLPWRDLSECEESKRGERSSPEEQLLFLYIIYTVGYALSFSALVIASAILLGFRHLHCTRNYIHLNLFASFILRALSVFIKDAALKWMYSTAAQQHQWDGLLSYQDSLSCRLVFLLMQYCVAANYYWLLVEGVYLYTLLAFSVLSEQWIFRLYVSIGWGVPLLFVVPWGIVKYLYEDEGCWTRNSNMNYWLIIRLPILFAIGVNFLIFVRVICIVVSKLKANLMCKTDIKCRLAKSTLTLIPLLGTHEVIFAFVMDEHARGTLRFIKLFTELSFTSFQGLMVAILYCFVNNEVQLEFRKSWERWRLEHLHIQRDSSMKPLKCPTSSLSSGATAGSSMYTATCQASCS

Row | SMILES | EC50 [1] [nM] | EC50 [2] [nM]
1 | CCP(=O)(CC)c1ccc(-n2ccn(-c3c4c(nn3-c3cc(C)c(F)c(C)c3)CCN(C(=O)c3cc5cc(C6CCOCC6)ccc5n3[C@@]3(c5noc(=O)[nH]5)C[C@@H]3C)[C@H]4C)c2=O)cc1NS(C)(=O)=O [Compound 116a] | 0.2 to 0.5 | 0.1 to 1
2 | CCP(=O)(CC)c1ccc(-n2ccn(-c3c4c(nn3-c3cc(C)c(F)c(C)c3)CCN(C(=O)c3cc5cc(C6CCOCC6)ccc5n3[C@@]3(c5noc(=O)[nH]5)C[C@@H]3C)[C@H]4C)c2=O)cc1N(C)C [Compound 117a, 3-((1S,2S)-1-(2-((S)-3-(3-(4-(diethylphosphoryl)-3-(dimethylamino)phenyl)-2-oxo-2,3-dihydro-1H-imidazol-1-yl)-2-(4-fluoro-3,5-dimethylphenyl)-4-methyl-4,5,6,7-tetrahydro-2H-pyrazolo[4,3-c]pyridine-5-carbonyl)-5-(tetrahydro-2H-pyran-4-yl)-1H-indol-1-yl)-2-methylcyclopropyl)-1,2,4-oxadiazol-5(4H)-one HCl salt] | 0.2 to 0.5 | 0.1 to 1
3 | CCP(=O)(CC)c1ccc(-n2ccn(-c3c4c(nn3-c3cc(C)c(F)c(C)c3)CCN(C(=O)c3cc5cc(C6CCOCC6)ccc5n3[C@@]3(c5noc(=O)[nH]5)C[C@@H]3C)[C@H]4C)c2=O)cc1NC(C)C [Compound 119a, 3-((1S,2S)-1-(2-((S)-3-(3-(4-(diethylphosphoryl)-3-(isopropylamino)phenyl)-2-oxo-2,3-dihydro-1H-imidazol-1-yl)-2-(4-fluoro-3,5-dimethylphenyl)-4-methyl-4,5,6,7-tetrahydro-2H-pyrazolo[4,3-c]pyridine-5-carbonyl)-5-(tetrahydro-2H-pyran-4-yl)-1H-indol-1-yl)-2-methylcyclopropyl)-1,2,4-oxadiazol-5(4H)-one] | 0.2 to 0.5 | 0.1 to 1
4 | Cc1cc(-n2nc3c(c2-n2ccn(-c4ccc(P(C)(C)=O)c(OC(F)(F)F)c4)c2=O)[C@H](C)N(C(=O)c2cc4cc(C5CCOCC5)ccc4n2[C@@]2(c4noc(=O)[nH]4)C[C@@H]2C)CC3)cc(C)c1F [Compound 123a, 3-((1S,2S)-1-(2-((S)-3-(3-(4-(dimethylphosphoryl)-3-(trifluoromethoxy)phenyl)-2-oxo-2,3-dihydro-1H-imidazol-1-yl)-2-(4-fluoro-3,5-dimethylphenyl)-4-methyl-4,5,6,7-tetrahydro-2H-pyrazolo[4,3-c]pyridine-5-carbonyl)-5-(tetrahydro-2H-pyran-4-yl)-1H-indol-1-yl)-2-methylcyclopropyl)-1,2,4-oxadiazol-5(4H)-one] | 0.2 to 0.5 | 0.1 to 1
5 | Cc1cc(-n2nc3c(c2-n2ccn(-c4ccc(P(C)(C)=O)c(N5CCOCC5)c4)c2=O)[C@H](C)N(C(=O)c2cc4cc(C5CCOCC5)ccc4n2[C@@]2(c4noc(=O)[nH]4)C[C@@H]2C)CC3)cc(C)c1F [Compound 125a, 3-((1S,2S)-1-(2-((S)-3-(3-(4-(dimethylphosphoryl)-3-morpholinophenyl)-2-oxo-2,3-dihydro-1H-imidazol-1-yl)-2-(4-fluoro-3,5-dimethylphenyl)-4-methyl-4,5,6,7-tetrahydro-2H-pyrazolo[4,3-c]pyridine-5-carbonyl)-5-(tetrahydro-2H-pyran-4-yl)-1H-indol-1-yl)-2-methylcyclopropyl)-1,2,4-oxadiazol-5(4H)-one] | 0.2 to 0.5 | 0.1 to 1
6 | Cc1cc(-n2nc3c(c2-n2ccn(-c4ccc(P5(=O)CCN(C)CC5)cc4)c2=O)[C@H](C)N(C(=O)c2cc4cc(C5CCOCC5)ccc4n2[C@@]2(c4noc(=O)[nH]4)C[C@@H]2C)CC3)cc(C)c1F [Compound 126a, 3-((1S,2S)-1-(2-((S)-2-(4-fluoro-3,5-dimethylphenyl)-4-methyl-3-(3-(4-(1-methyl-4-oxido-1,4-azaphosphinan-4-yl)phenyl)-2-oxo-2,3-dihydro-1H-imidazol-1-yl)-4,5,6,7-tetrahydro-2H-pyrazolo[4,3-c]pyridine-5-carbonyl)-5-(tetrahydro-2H-pyran-4-yl)-1H-indol-1-yl)-2-methylcyclopropyl)-1,2,4-oxadiazol-5(4H)-one] | 0.1 to 0.2 | 0.1 to 1

Other lines, results leading:

Row | EC50 [1] [nM] | EC50 [2] [nM] | SMILES
7 | < 0.1 | ≤ 0.1 | CCP(=O)(CC)c1ccc(-n2ccn(-c3c4c(nn3-c3cc(C)c(F)c(C)c3)CCN(C(=O)c3cc5cc(C6CCOCC6)ccc5n3[C@@]3(c5noc(=O)[nH]5)C[C@@H]3C)[C@H]4C)c2=O)cc1OC [Compound 118a, 3-((1S,2S)-1-(2-((S)-3-(3-(4-(diethylphosphoryl)-3-methoxyphenyl)-2-oxo-2,3-dihydro-1H-imidazol-1-yl)-2-(4-fluoro-3,5-dimethylphenyl)-4-methyl-4,5,6,7-tetrahydro-2H-pyrazolo[4,3-c]pyridine-5-carbonyl)-5-(tetrahydro-2H-pyran-4-yl)-1H-indol-1-yl)-2-methylcyclopropyl)-1,2,4-oxadiazol-5(4H)-one]
8 | < 0.1 | ≤ 0.1 | CCNc1cc(-n2ccn(-c3c4c(nn3-c3cc(C)c(F)c(C)c3)CCN(C(=O)c3cc5cc(C6CCOCC6)ccc5n3[C@@]3(c5noc(=O)[nH]5)C[C@@H]3C)[C@H]4C)c2=O)ccc1P(=O)(CC)CC [Compound 120a, 3-((1S,2S)-1-(2-((S)-3-(3-(4-(diethylphosphoryl)-3-(ethylamino)phenyl)-2-oxo-2,3-dihydro-1H-imidazol-1-yl)-2-(4-fluoro-3,5-dimethylphenyl)-4-methyl-4,5,6,7-tetrahydro-2H-pyrazolo[4,3-c]pyridine-5-carbonyl)-5-(tetrahydro-2H-pyran-4-yl)-1H-indol-1-yl)-2-methylcyclopropyl)-1,2,4-oxadiazol-5(4H)-one]
9 | < 0.1 | ≤ 0.1 | CCP(=O)(CC)c1ccc(-n2ccn(-c3c4c(nn3-c3cc(C)c(F)c(C)c3)CCN(C(=O)c3cc5cc(C6CCOCC6)ccc5n3[C@@]3(c5noc(=O)[nH]5)C[C@@H]3C)[C@H]4C)c2=O)cc1NC [Compound 121a, 3-((1S,2S)-1-(2-((S)-3-(3-(4-(diethylphosphoryl)-3-(methylamino)phenyl)-2-oxo-2,3-dihydro-1H-imidazol-1-yl)-2-(4-fluoro-3,5-dimethylphenyl)-4-methyl-4,5,6,7-tetrahydro-2H-pyrazolo[4,3-c]pyridine-5-carbonyl)-5-(tetrahydro-2H-pyran-4-yl)-1H-indol-1-yl)-2-methylcyclopropyl)-1,2,4-oxadiazol-5(4H)-one]
10 | < 0.1 | ≤ 0.1 | Cc1cc(-n2nc3c(c2-n2ccn(-c4ccc(P(C)(C)=O)cc4F)c2=O)[C@H](C)N(C(=O)c2cc4cc(C5CCOCC5)ccc4n2[C@@]2(c4noc(=O)[nH]4)C[C@@H]2C)CC3)cc(C)c1F [Compound 122a, 3-((1S,2S)-1-(2-((S)-3-(3-(4-(dimethylphosphoryl)-2-fluorophenyl)-2-oxo-2,3-dihydro-1H-imidazol-1-yl)-2-(4-fluoro-3,5-dimethylphenyl)-4-methyl-4,5,6,7-tetrahydro-2H-pyrazolo[4,3-c]pyridine-5-carbonyl)-5-(tetrahydro-2H-pyran-4-yl)-1H-indol-1-yl)-2-methylcyclopropyl)-1,2,4-oxadiazol-5(4H)-one]
11 | < 0.1 | ≤ 0.1 | Cc1cc(-n2ccn(-c3c4c(nn3-c3cc(C)c(F)c(C)c3)CCN(C(=O)c3cc5cc(C6CCOCC6)ccc5n3[C@@]3(c5noc(=O)[nH]5)C[C@@H]3C)[C@H]4C)c2=O)ccc1P(C)(C)=O [Compound 124a, 3-((1S,2S)-1-(2-((S)-3-(3-(4-(dimethylphosphoryl)-3-methylphenyl)-2-oxo-2,3-dihydro-1H-imidazol-1-yl)-2-(4-fluoro-3,5-dimethylphenyl)-4-methyl-4,5,6,7-tetrahydro-2H-pyrazolo[4,3-c]pyridine-5-carbonyl)-5-(tetrahydro-2H-pyran-4-yl)-1H-indol-1-yl)-2-methylcyclopropyl)-1,2,4-oxadiazol-5(4H)-one]
12 | < 0.1 | ≤ 0.1 | Cc1cc(-n2nc3c(c2-n2ccn(-c4ccc(P5(=O)CCCC5)cc4)c2=O)[C@H](C)N(C(=O)c2cc4cc(C5CCOCC5)ccc4n2[C@@]2(c4noc(=O)[nH]4)C[C@@H]2C)CC3)cc(C)c1F [Compound 127a, 3-((1S,2S)-1-(2-((S)-2-(4-fluoro-3,5-dimethylphenyl)-4-methyl-3-(3-(4-(1-oxidophospholan-1-yl)phenyl)-2-oxo-2,3-dihydro-1H-imidazol-1-yl)-4,5,6,7-tetrahydro-2H-pyrazolo[4,3-c]pyridine-5-carbonyl)-5-(tetrahydro-2H-pyran-4-yl)-1H-indol-1-yl)-2-methylcyclopropyl)-1,2,4-oxadiazol-5(4H)-one]
